Data published in patent US20210161174A1, “FEED ADDITIVE FOR FARMED ANIMALS” (ADISSEO FRANCE S.A.S., priority 2018, published 2021).
Marks after values point to notes of the source that are not given here.

Key:
[1] = Example 2: carcass, abdominal fat and yields of commercial cuts at 42 d; format: in vivo, Broiler Chicken (Cobb 500); details: for Abdominal fat yield / Breast fillets yield / Breast tenders yield / Drumsticks yield / Thighs yield / Wings yield: proportion of the carcass
From the text: Study Animals: • Animal: Broiler Chicken • Breed/Strain: Cobb 500 • Description: Day-of-hatch male chicks, sexed at hatchery • Sex: Male
Processing: On day […] (12) birds are selected from each pen for processing (at 12 reps/trt: 576 birds in total; 144 birds/trt)
Dietary Treatments • Control (NC, negative control without PQQ) • 0.2 ppm PQQ • 0.5 ppm PQQ • 1 ppm PQQ

[2] = Example 1: broiler performance (body weight, gain, feed intake, FCR), PQQ in diet, 0 to 49 days; format: in vivo, Broiler Chicken (Ross 708)
From the text: Study Animals: • Animal: Broiler Chicken • Breed/Strain: Ross 708 • Description: Day-of-hatch male chicks, sexed at hatchery • Sex: Male Total number of treatments: 4 Total number of replicates per treatment: 12 Total number of chicks per replicate: 40 Initial age: day-of-hatch: 0 days-of-age Final age: 7 weeks: 49 days-of-age. Feed will be changed based on the days of each phase. • Starter feed will be weighed out and fed from day 0 to 14. On day 14, non-consumed starter feed will be weighed by pen and discarded. • Grower feed will be weighed, issued and fed from day 14 until 28. On day 28, non-consumed grower feed will be weighed by pen and discarded. • Finisher feed will be weighed, issued and fed from day 28 until 42. On day 42, non-consumed finisher feed will be weighed by pen and discarded. • Withdraw feed will be weighed, issued and fed from day 42 until 49. On day 49, non-consumed finisher feed will be weighed by pen and discarded. Performance: Feed consumption and pen weights are determined on days 0, 14, 21, 28, 35, 42 and 49 to calculate average body weight (BW), body weight gain (BWG) and feed conversion ratio (FCR). Final bird weights: At the end of the grow-out period (Day 49), all birds are weighed, as well as any and all remaining feed. Randomized Complete Block Design with 4 treatments×12 replicates/treatment (40 birds/pen), randomized within blocks across the barn to minimize differences in environmental condition. The pen is the experimental unit. Dietary Treatments • Control (NC, negative control without PQQ) • 0.5 ppm PQQ • 1 ppm PQQ • 2 ppm PQQ The results are presented in the following tables 1-4 for broilers fed diets from the first week to the seventh week (corresponding to 0 to 49 days of age). The values are means and SD is standard variation. The feed conversion ratio is the ratio between feed intake and body weight gain.

SMILES: O=C(O)c1cc(C(=O)O)c2c(n1)C(=O)C(=O)c1cc(C(=O)O)[nH]c1-2 [PQQ, pyrroloquinoline quinone]
- Abdominal fat weight ([1]; 0.2 ppm PQQ): 26 g
- Breast fillets weight ([1]; 0.2 ppm PQQ): 680 g
- Breast tenders weight ([1]; 0.2 ppm PQQ): 127ab g
- Carcass yield (eviscerated carcass as a percentage of body weight) ([1]; 0.2 ppm PQQ): 80.3^b %
- Drumsticks weight ([1]; 0.2 ppm PQQ): 467 g
- Thighs weight ([1]; 0.2 ppm PQQ): 364 g
- Wings weight ([1]; 0.2 ppm PQQ): 258 g
- Abdominal fat yield ([1]; 0.2 ppm PQQ): 1.05%
- Breast fillets yield ([1]; 0.2 ppm PQQ): 26.8%
- Breast tenders yield ([1]; 0.2 ppm PQQ): 5.03^b %
- Drumsticks yield ([1]; 0.2 ppm PQQ): 18.42^b %
- Thighs yield ([1]; 0.2 ppm PQQ): 14.36^ab %
- Wings yield ([1]; 0.2 ppm PQQ): 10.19^ab %
- Abdominal fat weight ([1]; 0.5 ppm PQQ): 28 g
- Breast fillets weight ([1]; 0.5 ppm PQQ): 677 g
- Breast tenders weight ([1]; 0.5 ppm PQQ): 129ab g
- Carcass yield (eviscerated carcass as a percentage of body weight) ([1]; 0.5 ppm PQQ): 80.4^b %
- Drumsticks weight ([1]; 0.5 ppm PQQ): 473 g
- Thighs weight ([1]; 0.5 ppm PQQ): 378 g
- Wings weight ([1]; 0.5 ppm PQQ): 258 g
- Abdominal fat yield ([1]; 0.5 ppm PQQ): 1.11%
- Breast fillets yield ([1]; 0.5 ppm PQQ): 26.8%
- Breast tenders yield ([1]; 0.5 ppm PQQ): 5.12^ab %
- Drumsticks yield ([1]; 0.5 ppm PQQ): 18.73^ab %
- Thighs yield ([1]; 0.5 ppm PQQ): 15.01^a %
- Wings yield ([1]; 0.5 ppm PQQ): 10.42^a %
- Abdominal fat weight ([1]; 1.0 ppm PQQ): 23 g
- Breast fillets weight ([1]; 1.0 ppm PQQ): 702 g
- Breast tenders weight ([1]; 1.0 ppm PQQ): 134a g
- Carcass yield (eviscerated carcass as a percentage of body weight) ([1]; 1.0 ppm PQQ): 80.3^b %
- Drumsticks weight ([1]; 1.0 ppm PQQ): 486 g
- Thighs weight ([1]; 1.0 ppm PQQ): 366 g
- Wings weight ([1]; 1.0 ppm PQQ): 259 g
- Abdominal fat yield ([1]; 1.0 ppm PQQ): 0.90%
- Breast fillets yield ([1]; 1.0 ppm PQQ): 27.4%
- Breast tenders yield ([1]; 1.0 ppm PQQ): 5.22^a %
- Drumsticks yield ([1]; 1.0 ppm PQQ): 18.89^a %
- Thighs yield ([1]; 1.0 ppm PQQ): 14.24^b %
- Wings yield ([1]; 1.0 ppm PQQ): 10.05^ab %
- body weight ([2]; 0.5 ppm PQQ, wk 1): 0.139 kg
- feed conversion ratio (FCR) ([2]; 0.5 ppm PQQ, wk 1): 1.491
- feed intake ([2]; 0.5 ppm PQQ, wk 1): 0.142 kg
- weekly body weight gain ([2]; 0.5 ppm PQQ, wk 1): 0.095 kg
- body weight ([2]; 0.5 ppm PQQ, wk 2): 0.355 kg
- feed conversion ratio (FCR) ([2]; 0.5 ppm PQQ, wk 2): 1.400
- feed intake ([2]; 0.5 ppm PQQ, wk 2): 0.299 kg
- weekly body weight gain ([2]; 0.5 ppm PQQ, wk 2): 0.215 kg
- body weight ([2]; 0.5 ppm PQQ, wk 3): 0.763 kg
- feed conversion ratio (FCR) ([2]; 0.5 ppm PQQ, wk 3): 1.623
- feed intake ([2]; 0.5 ppm PQQ, wk 3): 0.671 kg
- weekly body weight gain ([2]; 0.5 ppm PQQ, wk 3): 0.414 kg
- body weight ([2]; 0.5 ppm PQQ, wk 4): 1.286 kg
- feed conversion ratio (FCR) ([2]; 0.5 ppm PQQ, wk 4): 1.435
- feed intake ([2]; 0.5 ppm PQQ, wk 4): 0.796 kg
- weekly body weight gain ([2]; 0.5 ppm PQQ, wk 4): 0.556 kg
- body weight ([2]; 0.5 ppm PQQ, wk 5): 2.042 kg
- feed conversion ratio (FCR) ([2]; 0.5 ppm PQQ, wk 5): 1.617
- feed intake ([2]; 0.5 ppm PQQ, wk 5): 1.139 kg
- weekly body weight gain ([2]; 0.5 ppm PQQ, wk 5): 0.688 kg
- body weight ([2]; 0.5 ppm PQQ, wk 6): 2.808 kg
- feed conversion ratio (FCR) ([2]; 0.5 ppm PQQ, wk 6): 1.755
- feed intake ([2]; 0.5 ppm PQQ, wk 6): 1.346 kg
- weekly body weight gain ([2]; 0.5 ppm PQQ, wk 6): 0.767 kg
- body weight ([2]; 0.5 ppm PQQ, wk 7): 3.416 kg
- feed conversion ratio (FCR) ([2]; 0.5 ppm PQQ, wk 7): 1.603
- feed intake ([2]; 0.5 ppm PQQ, wk 7): 0.986 kg
- weekly body weight gain ([2]; 0.5 ppm PQQ, wk 7): 0.622 kg
- influence on the body weight ([2]; 0.5 ppm, as from the second week): positive influence
- body weight ([2]; 1.0 ppm PQQ, wk 1): 0.145 kg
- feed conversion ratio (FCR) ([2]; 1.0 ppm PQQ, wk 1): 1.514
- feed intake ([2]; 1.0 ppm PQQ, wk 1): 0.151 kg
- weekly body weight gain ([2]; 1.0 ppm PQQ, wk 1): 0.100 kg
- body weight ([2]; 1.0 ppm PQQ, wk 2): 0.371 kg
- feed conversion ratio (FCR) ([2]; 1.0 ppm PQQ, wk 2): 1.418
- feed intake ([2]; 1.0 ppm PQQ, wk 2): 0.315 kg
- weekly body weight gain ([2]; 1.0 ppm PQQ, wk 2): 0.225 kg
- body weight ([2]; 1.0 ppm PQQ, wk 3): 0.790 kg
- feed conversion ratio (FCR) ([2]; 1.0 ppm PQQ, wk 3): 1.619
- feed intake ([2]; 1.0 ppm PQQ, wk 3): 0.678 kg
- weekly body weight gain ([2]; 1.0 ppm PQQ, wk 3): 0.419 kg
- body weight ([2]; 1.0 ppm PQQ, wk 4): 1.329 kg
- feed conversion ratio (FCR) ([2]; 1.0 ppm PQQ, wk 4): 1.427
- feed intake ([2]; 1.0 ppm PQQ, wk 4): 0.816 kg
- weekly body weight gain ([2]; 1.0 ppm PQQ, wk 4): 0.573 kg
- body weight ([2]; 1.0 ppm PQQ, wk 5): 2.112 kg
- feed conversion ratio (FCR) ([2]; 1.0 ppm PQQ, wk 5): 1.608
- feed intake ([2]; 1.0 ppm PQQ, wk 5): 1.161 kg
- weekly body weight gain ([2]; 1.0 ppm PQQ, wk 5): 0.723 kg
- body weight ([2]; 1.0 ppm PQQ, wk 6): 2.927 kg
- feed conversion ratio (FCR) ([2]; 1.0 ppm PQQ, wk 6): 1.741
- feed intake ([2]; 1.0 ppm PQQ, wk 6): 1.370 kg
- weekly body weight gain ([2]; 1.0 ppm PQQ, wk 6): 0.787 kg
- body weight ([2]; 1.0 ppm PQQ, wk 7): 3.612 kg
- feed conversion ratio (FCR) ([2]; 1.0 ppm PQQ, wk 7): 1.616
- feed intake ([2]; 1.0 ppm PQQ, wk 7): 1.106 kg
- weekly body weight gain ([2]; 1.0 ppm PQQ, wk 7): 0.686 kg
- influence on the body weight ([2]; 1 ppm and 2 ppm, as from the first week up to the end of the assay): positive influence
- body weight ([2]; 2.0 ppm PQQ, wk 1): 0.146 kg
- feed conversion ratio (FCR) ([2]; 2.0 ppm PQQ, wk 1): 1.406
- feed intake ([2]; 2.0 ppm PQQ, wk 1): 0.142 kg
- weekly body weight gain ([2]; 2.0 ppm PQQ, wk 1): 0.102 kg
- body weight ([2]; 2.0 ppm PQQ, wk 2): 0.373 kg
- feed conversion ratio (FCR) ([2]; 2.0 ppm PQQ, wk 2): 1.414
- feed intake ([2]; 2.0 ppm PQQ, wk 2): 0.315 kg
- weekly body weight gain ([2]; 2.0 ppm PQQ, wk 2): 0.224 kg
- body weight ([2]; 2.0 ppm PQQ, wk 3): 0.794 kg
- feed conversion ratio (FCR) ([2]; 2.0 ppm PQQ, wk 3): 1.608
- feed intake ([2]; 2.0 ppm PQQ, wk 3): 0.645 kg
- weekly body weight gain ([2]; 2.0 ppm PQQ, wk 3): 0.425 kg
- body weight ([2]; 2.0 ppm PQQ, wk 4): 1.331 kg
- feed conversion ratio (FCR) ([2]; 2.0 ppm PQQ, wk 4): 1.469
- feed intake ([2]; 2.0 ppm PQQ, wk 4): 0.813 kg
- weekly body weight gain ([2]; 2.0 ppm PQQ, wk 4): 0.548 kg
- body weight ([2]; 2.0 ppm PQQ, wk 5): 2.065 kg
- feed conversion ratio (FCR) ([2]; 2.0 ppm PQQ, wk 5): 1.605
- feed intake ([2]; 2.0 ppm PQQ, wk 5): 1.141 kg
- weekly body weight gain ([2]; 2.0 ppm PQQ, wk 5): 0.727 kg
- body weight ([2]; 2.0 ppm PQQ, wk 6): 2.835 kg
- feed conversion ratio (FCR) ([2]; 2.0 ppm PQQ, wk 6): 1.741
- feed intake ([2]; 2.0 ppm PQQ, wk 6): 1.336 kg
- weekly body weight gain ([2]; 2.0 ppm PQQ, wk 6): 0.77 kg
- body weight ([2]; 2.0 ppm PQQ, wk 7): 3.472 kg
- feed conversion ratio (FCR) ([2]; 2.0 ppm PQQ, wk 7): 1.615
- feed intake ([2]; 2.0 ppm PQQ, wk 7): 1.041 kg
- weekly body weight gain ([2]; 2.0 ppm PQQ, wk 7): 0.648 kg
- influence on the feed intake ([2]; as from a concentration of 1 ppm): has an influence on the feed intake
